Results: US8822533B1, “Methods and compositions for repelling and/or killing insects” (The United States of America, as represented by the …, priority 2011, dated 2014)

Legend:
[1] = test system: Ae. aegypti + An. albimanus; assay: Bite protection of FRACUs (Defender-M) treated with insecticides; format: in vivo; details: FRACU (Defender-M) sleeve; allethrin 0.085, bioresmethrin 0.106, etofenprox 0.101, bifenthrin 0.101 mg/cm^2
Description: Biological Evaluation: Bite protection assays were conducted with laboratory-reared 7-12 day old mosquitoes or sand flies. The species used throughout these studies are Aedes aegypti (Orlando, 1952) and Phlebotomus papatasi sand flies (Jerusalem, 1983). Females were pre-selected using either a hand draw box or a mechanical aspirator.
An assay was conducted by wearing sewn sleeves made from clothing material. Treated specimens were assayed with untreated controls to correct for the bite resistance afforded by material construction and composition. The untreated control was tested at the beginning of the experiment, followed by successively higher candidate repellent concentrations on sleeves. Sleeves were sewn from a cut out single ply trapezoidal pattern (33.2 cm×21 cm×25.5 cm height) of material. Sleeves were normally with a candidate repellent at the EPA permethrin label rate of 0.52% weight on (+5% tolerance) or less (0.125 mg/cm^2 for the 50/50 Nylon/Cotton (NYCO) Army Combat Uniform and 0108 mg./cm2 for the 65% Rayon/25% Para-aramid/10% Nylon Fire-Resistant Army Combat Uniform). Permethrin was 35:65cis: trans, 95.85% technical material. Experimental repellents were received as neat samples with <5% impurities. The treatment occurred by dissolution of repellent in suitable quantity of acetone to saturate the clothing, but minimizing excess solution. Excess solution was quantified and this amount of excess was then used to calculate the estimated amount of repellent applied to the material.
Insects were maintained in colony at approximately 78° F. and 60-80% RH. The photoperiod was 12:12. The mosquito cages were approximately 60000 cm^3 and each contained 175 to 225 female mosquitoes. […] Cages for sand fly work were slightly smaller (15000 cm^3) and constructed of acrylic for filming purposes and with screens on the exterior edges to allow air flow through the system. About 20-40 sand flies were released in cages for each assay. Assays started when the sleeved arm was inserted through the sleeve into the cage. Normally the hand was protected by a glove, but there were situations (i.e. sand fly data presented here) when the ability of a repellent to protect the untreated hand was determined. The assay periods were 15 min for the mosquitoes and 25-30 minutes for sand flies. The insects were allowed to land, probe and possibly bloodfeed during this time. At the conclusion of the experiment, all insects were knocked down or aspirated and the percentage that bloodfed of the total female test population in the cage was recorded. The protect level was calculated by Abbott's formula as a percentage reduction in bites compared to the untreated fabric control sleeve.
We were able to examine several treatments on the FRACU fabric sleeves (Table 7). […]

[2] = test system: Mosquitoes, either Aedes aegypti (Liverpool) or Anopheles stephensi Liston; assay: K&D module in vitro bioassay: biting protection, knockdown and mortality; format: in vivo; details: for mortality at 0.0025 µM / mortality at 0.025 µM: Aedes aegypti; for mortality at 0.0025 µM: 24 h; for mortality at 0.025 µM: 48 h
Description: In vitro bioassays were conducted as described by Klun et. al. (Klun, J. A., et al., J. Med. Entomol., 40: 293-299 (2005)). Each test replicate consisted of 3 treatments: a control (EtOH); a standard (Deet, 4.54 nmol/μl); and an experimental compound (pyrethroid analogs, 4.54 nmol/ul). The 3 treatments were randomly assigned to consecutive cells in 2, 6-cell reservoirs connected in series to a single water-bath pump; thus, 4 replicates could be tested/run. Tests were performed in an Air Science USA hood, with an air movement velocity of approx. 110-120 ft./min., temperature of 25-27° C., and RH of 15-25%. A 6-celled reservoir was connected to and heated by a constant-temperature (38° C.) water circulator (Lauda E100, Wobser GMGH and Co., Konigshofell, Germany).
Prior to each test, the upper surface of each reservoir was coated with a thin layer of high-vacuum silicone grease (Dow Corning Corp., Midland, Mich.), and the cells then filled (approx. 6 ml. capacity) or topped-off with either: (1) expired human red blood cells suspended in citrate-phosphate-dextrose-adenine (CPDA) solution, not more than 1 month past expiration date, and to which 110 mg ATP/35 ml. blood-CPDA had been added on the day of testing; or (2) CPDA+ATP×^−3, usually made up or diluted to 10^−3 ATP on the day of testing. The filled cells were then covered with an Edicol collagen membrane (Devro, Sandy Run, S.C.) strip, and then with a just-treated (110 μl of 4.54 nmol/μl treatment or control solution) organdy cloth (G Street Fabrics, Rockville, Md.) strip. Mosquitoes used in tests were either Aedes aegypti_(Liverpool) or Anopheles stephensi_Liston. K&D modules containing 5 adult females/cell were placed over a Teflon separator atop each reservoir; the sliding floors opened allowing access to the treated organdy cloth and membrane-covered cell; and the number of mosquitoes biting (proboscis inserted through the cloth) and/or observed to be engorged within each cell at the end of a 3-5 min. exposure period was recorded. Mosquitoes were used only once in a test, and then frozen and discarded.
Only tests in which 3 or more females fed in the control cell were analyzed, as lower feeding rates are indicative of substandard feeding readiness of that group of mosquitoes.
[…] Data were collected to record knockdown in 6 minutes, one hour and 24 hours post exposure.

[3] = test system: bed bugs (Cimex lectularius); assay: Bed bug mortality on treated filter paper; format: in vivo; details: for mortality at 1 µg/cm2 / mortality at 10 µg/cm2 / mortality at 100 µg/cm2: Cimex lectularius, 24 h
Description: Knockdown data and mortality for volatile pyrethroids against bed bugs (Cimex lectularius): Compounds were dissolved in acetone to yield concentrations of 100 μg/cm^2, 10 μg/cm^2, and 1 μg/cm^2 and 47 mm filter paper disks were treated. Acetone-treated filter paper was used as a negative control. Mixed stages (nymphs and adults) of a laboratory colony of the bed bug Cimex lectularius were placed on the treated filter paper in glass Petri dishes and mortality was recorded 24 h later, at which time bed bugs were removed to untreated surfaces. 24 h after this transfer another assessment of mortality was made to see if any dead or moribund bugs had recovered.

[4] = test system: bed bugs (Cimex lectularius); assay: Bed bug mortality on treated filter paper; format: in vivo; details: 24 h
Ae. aegypti mosquitoes = assay: Sleeve bite protection assay on treated uniform fabric, mosquitoes; format: in vivo, Aedes aegypti (Orlando, 1952)
Description: (§1) Biological Evaluation: Bite protection assays were conducted with laboratory-reared 7-12 day old mosquitoes or sand flies. The species used throughout these studies are Aedes aegypti (Orlando, 1952) and Phlebotomus papatasi sand flies (Jerusalem, 1983). Females were pre-selected using either a hand draw box or a mechanical aspirator. An assay was conducted by wearing sewn sleeves made from clothing material. Treated specimens were assayed with untreated controls to correct for the bite resistance afforded by material construction and composition. The untreated control was tested at the beginning of the experiment, followed by successively higher candidate repellent concentrations on sleeves. Sleeves were sewn from a cut out single ply trapezoidal pattern (33.2 cm×21 cm×25.5 cm height) of material. […] Permethrin was 35:65cis: trans, 95.85% technical material. Experimental repellents were received as neat samples with <5% impurities. The treatment occurred by dissolution of repellent in suitable quantity of acetone to saturate the clothing, but minimizing excess solution. Excess solution was quantified and this amount of excess was then used to calculate the estimated amount of repellent applied to the material. […] The photoperiod was 12:12. The mosquito cages were approximately 60000 cm^3 and each contained 175 to 225 female mosquitoes. […] Cages for sand fly work were slightly smaller (15000 cm^3) and constructed of acrylic for filming purposes and with screens on the exterior edges to allow air flow through the system. About 20-40 sand flies were released in cages for each assay. Assays started when the sleeved arm was inserted through the sleeve into the cage. Normally the hand was protected by a glove, but there were situations (i.e. sand fly data presented here) when the ability of a repellent to protect the untreated hand was determined. The assay periods were 15 min for the mosquitoes and 25-30 minutes for sand flies. The insects were allowed to land, probe and possibly bloodfeed during this time. At the conclusion of the experiment, all insects were knocked down or aspirated and the percentage that bloodfed of the total female test population in the cage was recorded. The protect level was calculated by Abbott's formula as a percentage reduction in bites compared to the untreated fabric control sleeve. Specific conditions for bioassays are noted with corresponding data contained in the Tables.

[5] = test system: Phlebotomus papatasi sand flies; assay: Sleeve bite protection assay on treated uniform fabric, sand flies; format: in vivo, Phlebotomus papatasi (Jerusalem, 1983); details: FRACU, permethrin sleeve 0.134 mg/cm^2 + treated strip, hand ungloved; strip TL-I-73 0.167, transfluthrin 0.161 mg/cm2
Description: as §1

[6] = ACU (50/50 NYCO) sleeve, glove on hand, 15 min, permethrin 0.118, transfluthrin 0.108, TL-I-107 0.107, TL-I-141 0.109, TL-I-105 0.107, TL-I-73 0.102 mg/cm^2
[7] = ACU (50/50 NYCO) sleeve, glove on hand, Abbott's formula vs untreated sleeve, concentrations as E1
[8] = ACU (50/50 NYCO) sleeve, glove on hand, concentrations as E1
[9] = ACU sleeve, stored one year then tested, concentrations as E1
[10] = ACU sleeve, treated specimens stored in refrigerator for one year then tested, concentrations as E1
[11] = ACU sleeve, No Glove on hand, permethrin 0.118, transfluthrin 0.108 mg/cm^2
[12] = FRACU sleeve, concentrations as E9
[13] = FRACU, untreated sleeve + treated strip, Ultrathon (34.34% DEET) on hand, TL-I-73 0.163, transfluthrin 0.158 mg/cm^2
[14] = FRACU, untreated sleeve + treated strip, hand gloved, TL-I-73 0.163, transfluthrin 0.158 mg/cm^2

Row | Compound | Knockdown 6 min (%) ([2]; 2.5 nM\cm^2, K&D module) | Knockdown 24 hours (%) ([2]; 2.5 nM\cm^2, K&D module) | Not feeding 3 minutes (%) ([2]; 2.5 nM\cm^2, K&D module) | Knockdown 1 hour (%) ([2]; 2.5 nmol/cm^2, K&D module) | Knockdown 6 min (%) ([2]; 25 nM\cm^2, K&D module) | Knockdown 24 hours (%) ([2]; 25 nM\cm^2, K&D module) | Not feeding 3 minutes (%) ([2]; 25 nM\cm^2, K&D module) | Knockdown 1 hour (%) ([2]; 25 nmol/cm^2, K&D module) | mortality at 0.0025 µM [2] [%] | mortality at 0.025 µM [2] [%] | mortality at 1 µg/cm2 [3] [%] | mortality at 10 µg/cm2 [3] [%] | mortality at 100 µg/cm2 [3] [%] | mortality at 5 µg/cm2 [4] [%] | Blood-fed # (Ae. aegypti mosquitoes; [6]) | Bite Protection (%) (Ae. aegypti mosquitoes; [7]) | Fed (%) (Ae. aegypti mosquitoes; [8]) | Bite Protection (%) (Ae. aegypti mosquitoes; [9]) | Fed (%) (Ae. aegypti mosquitoes; [9]) | Blood-fed # (Ae. aegypti mosquitoes; [10]) | further results
1 | CCOc1ccc(C(C)(C)COCc2cccc(Oc3ccccc3)c2)cc1 [Etofenprox] | – | – | – | – | – | – | – | – | – | – | – | – | – | – | – | – | – | – | – | – | Bite Protection (% ± SE) (Ae. aegypti + An. albimanus) [1]: 94.9 ± 0.6%
2 | CC(C)=C[C@@H]1[C@@H](C(=O)OCc2c(F)c(F)c(C)c(F)c2F)C1(C)C [TL-I-105] | 98 | 100 | 100 | 100 | 100 | 100 | 100 | 100 | 100 | 100 | 10 | 100 | 100 | 100 | 0 # | 100 | 0.0 | 100 | 0.0 | 0 # | –
3 | Cc1c(Cl)c(Cl)c(COC(=O)[C@@H]2[C@@H](C=C(Cl)Cl)C2(C)C)c(Cl)c1Cl [TL-I-111] | – | – | – | – | – | – | – | – | – | – | 0 | 100 | 100 | 100 | – | – | – | – | – | – | –
4 | CC1(C)[C@H](C=C(Cl)Cl)[C@H]1C(=O)OCc1c(F)c(F)cc(F)c1F [Transfluthrin, transfluthrin] | 100 | 100 | 100 | 100 | 100 | 100 | 100 | 100 | 100 | 100 | – | – | – | – | 0 # | 100 | 0.0 | 100 | 0.0 | 0 # | mortality (in words) ([3]; at either 100 μg/cm^2 or 10 μg/cm^2): no mortality or mortality less than 100%; mortality (value in parentheses) ([3]; concentration not clearly stated for this group): 20%; Bite Protection (%) [5]: significant protection from sand fly bites to the unprotected hand; Blood-fed # (Ae. aegypti mosquitoes; [11]): 4 #; Fed (%) (Ae. aegypti mosquitoes; [11]): 2.1%; protecting non-repellent treated surfaces of skin (i.e. the hand) (Ae. aegypti mosquitoes; ACU sleeve, glove removed from hand, compared with permethrin): superior to permethrin; bite protection (Ae. aegypti mosquitoes; Defender-M FRACU sleeve at 0.52 mg/cm2): 100%; Blood-fed # (Ae. aegypti mosquitoes; FRACU (65% Rayon, 10% Nylon, 25% Para-aramid) sleeve, permethrin 0.071, combination permethrin 0.031 + transfluthrin 0.038, transfluthrin 0.052 mg/cm^2): 0 #; Bite Protection (%) (Ae. aegypti mosquitoes; [12]): 100.0%; Fed (%) (Ae. aegypti mosquitoes; [12]): 0.0%; Bite Protection (%) (Ae. aegypti mosquitoes; FRACU sleeve, concentrations as E9, listed as transfluthrin): 100%; Bite Protection (%) (Ae. aegypti mosquitoes; FRACU, permethrin sleeve 0.134 mg/cm^2 + treated strip, hand gloved, strip TL-I-73 0.167, transfluthrin 0.161 mg/cm^2): 100%; Blood-fed # (Ae. aegypti mosquitoes; FRACU, untreated sleeve + treated strip (20.5 cm × 2.6 cm) at wrist, hand gloved, TL-I-73 0.163, transfluthrin 0.158 mg/cm^2): 11 #; Blood-fed # (Ae. aegypti mosquitoes; FRACU, untreated sleeve + treated strip, Ultrathon 12 hr repellent (34.34% DEET) on hand, TL-I-73 0.163, transfluthrin 0.158 mg/cm^2): 6 #; Bite Protection (%) (Ae. aegypti mosquitoes; [13]): 89.2%; Fed (%) (Ae. aegypti mosquitoes; [13]): 2.9%; Bite Protection (%) (Ae. aegypti mosquitoes; [14]): 93.3%; Fed (%) (Ae. aegypti mosquitoes; [14]): 5.5%
